Measurements as given in publication PMC4933729 (Clinical Pharmacokinetics, 2016).
Values joined by “and” are separate entries in the source; they are usually repeats but may differ in a detail not shown here. Equal values may be shown once. Read-outs that look alike come from different tables or passages of the source.

How the values were obtained:
[1] = test system: CYP enzymes, OCT1/OCT2, MATE 1, glucuronidation; details: cited from earlier work
[2] = assay type: in vivo, healthy volunteers; details: for Tmax: both, human, plasma, oral; for AUC from time zero to time t (AUCt) decrease: data not shown
[3] = Safety and tolerability assessments in the phase I studies; assay type: in vivo, healthy subjects; details: carisoprodol arm
[4] = assay type: in vivo, healthy volunteers; details: for change in exposures: with any of the coadministered medications, apart from stated exceptions
[5] = coadministration with ritonavir; cited from earlier work
[6] = coadministered with the 3D regimen; cited from earlier work
[7] = in the presence of the 3D regimen
[8] = upon coadministration with the 3D regimen
[9] = alone and with the 3D regimen (not affected / similar)
[10] = coadministration with the 3D regimen

CC(=O)Nc1ccc(O)cc1 [Acetaminophen]
Metabolic pathway [1]: Glucuronidation

CCCC(C)(COC(N)=O)COC(=O)NC(C)C (stereo not shown) [Carisoprodol]
Tmax [2]: 2 h | Cmax decrease [2, 7]: 46% | exposures decrease [2, 8]: ≤ 46% | subjects reporting somnolence [3]: five

CN(C)CCC=C1c2ccccc2C=Cc2ccccc21 [Cyclobenzaprine]
median tmax [2, 9]: 5.0 h | Cmax decrease [2, 7]: 32% | AUC decrease [2, 7]: 40% | exposures decrease [2, 8]: up to 46% | exposures decrease ([2]; upon coadministration with the 3D regimen, listed as cyclobenzaprine): ≤ 40% | Metabolic pathway [1]: CYP3A4, 1A2, and 2D6 substrate

COc1c(-c2ccc3cc(NS(C)(=O)=O)ccc3c2)cc(-n2ccc(=O)[nH]c2=O)cc1C(C)(C)C [Dasabuvir]
AUC increase ([4]; in the presence of SMZ/TMP): 33% | change in (other) exposure parameters ([4]; in the presence of SMZ/TMP): < 20% | exposures increase ([4]; in the presence of SMZ/TMP): ≤ 33% | change in exposures [4]: ≤ 25%

COc1ccc2c3c1O[C@H]1C(=O)CC[C@H]4[C@@H](C2)N(C)CC[C@]314 [Hydrocodone]
Tmax [2]: 2 h | AUC increase [2, 7]: 90% | Cmax increase [2, 7]: 27%

CCCC(C)(COC(N)=O)COC(N)=O [Meprobamate]
Tmax [2]: 3 to 4 h | AUC change (increase or decrease) [2, 7]: < 20% | Cmax change (increase or decrease) [2, 7]: < 20%

CN(C)C(=N)N=C(N)N [Metformin]
median tmax [2, 9]: 4.0 h | Cmax decrease [2, 7]: 23% | AUC decrease [2, 7]: < 20% and 10% | Metabolic pathway [1]: OCT1/OCT2 substrate

CNCCC=C1c2ccccc2C=Cc2ccccc21 [Norcyclobenzaprine]
harmonic mean t½ [2, 10]: 53 h | median tmax [2, 10]: 24 h | Cmax change (increase or decrease) [2, 7]: < 20% | AUC decrease [2, 7]: 26% | harmonic mean t½ ([2]; medication alone): 86 h | median tmax ([2]; medication alone): 36 h | proportion of AUC extrapolated after the last measurable timepoint ([2]; with the 3D regimen): 21% | AUC from time zero to time t (AUCt) decrease ([2]; with the 3D regimen): 7% | proportion of AUC extrapolated after the last measurable timepoint ([2]; without the 3D regimen): 42%

O=C1CN=C(c2ccccc2)c2cc(Cl)ccc2N1 [Nordiazepam]
Tmax [2]: 48 h | Tmax ([2]; 2 mg): 96 h | Cmax increase [2, 7]: 10% and < 20% | proportion of AUC extrapolated after the last measurable timepoint ([2]; with the 3D regimen): 20% | AUC from time zero to time t (AUCt) decrease ([2]; with the 3D regimen): 3% | proportion of AUC extrapolated after the last measurable timepoint ([2]; without the 3D regimen): 46%

COC(=O)N[C@H](C(=O)N1CCC[C@H]1C(=O)Nc1ccc([C@@H]2CC[C@@H](c3ccc(NC(=O)[C@@H]4CCCN4C(=O)[C@@H](NC(=O)OC)C(C)C)cc3)N2c2ccc(C(C)(C)C)cc2)cc1)C(C)C [Ombitasvir]
change in (other) exposure parameters ([4]; in the presence of SMZ/TMP): < 20% | change in exposures [4]: ≤ 25%

Cc1cnc(C(=O)N[C@H]2CCCCC/C=C\[C@@H]3C[C@@]3(C(=O)NS(=O)(=O)C3CC3)NC(=O)[C@@H]3C[C@@H](Oc4nc5ccccc5c5ccccc45)CN3C2=O)cn1 [Paritaprevir]
Tmax ([4]; both, human, plasma, oral, median tmax, in the presence of metformin): 5.5 h | Cmax decrease ([4]; in the presence of SMZ/TMP): 22% | change in (other) exposure parameters ([4]; in the presence of SMZ/TMP): < 20% | change in exposures [4]: ≤ 25% | Cmax decrease ([4]; with metformin): 37% | Ctrough increase ([4]; with metformin): 22%

CC(C)c1nc(CN(C)C(=O)N[C@H](C(=O)N[C@@H](Cc2ccccc2)C[C@H](O)[C@H](Cc2ccccc2)NC(=O)OCc2cncs2)C(C)C)cs1 [Ritonavir]
change in (other) exposure parameters ([4]; in the presence of SMZ/TMP): < 20% | change in exposures [4]: ≤ 25%

COc1cc(Cc2cnc(N)nc2N)cc(OC)c1OC [Trimethoprim]
AUC increase [2, 7]: 22% | Ctrough increase [2, 7]: 25% | changes in exposures (Cmax and AUC geometric mean ratios) [2, 8]: ≤ 25% | exposures increase [2, 8]: ≤ 20% | increase in AUC [5]: 20% | Metabolic pathway [1]: Weak to moderate CYP2C8 inhibitor; weak OCT2 inhibitor; MATE 1 inhibitor

COc1c(-c2ccc3cc(NS(C)(=O)=O)ccc3c2)cc(-n2ccc(=O)[nH]c2=O)cc1C(C)(C)CO [dasabuvir M1]
exposures decrease ([4]; in the presence of SMZ/TMP, data not shown): ≤ 19%

COc1ccc2[nH]c([S+]([O-])Cc3ncc(C)c(OC)c3C)nc2c1 (stereo not shown) [omeprazole]
exposures decrease [6]: ~ 40%
